Holding throughout (conditions): at 10 µM
Test [1] concerns the target Death-associated protein kinase 1 (Homo sapiens, UniProt P53355).
The target in test [2] is T1, Cyclin-dependent kinase 11A (Homo sapiens) (UniProt Q9UQ88).
T1 sequence (whole entry): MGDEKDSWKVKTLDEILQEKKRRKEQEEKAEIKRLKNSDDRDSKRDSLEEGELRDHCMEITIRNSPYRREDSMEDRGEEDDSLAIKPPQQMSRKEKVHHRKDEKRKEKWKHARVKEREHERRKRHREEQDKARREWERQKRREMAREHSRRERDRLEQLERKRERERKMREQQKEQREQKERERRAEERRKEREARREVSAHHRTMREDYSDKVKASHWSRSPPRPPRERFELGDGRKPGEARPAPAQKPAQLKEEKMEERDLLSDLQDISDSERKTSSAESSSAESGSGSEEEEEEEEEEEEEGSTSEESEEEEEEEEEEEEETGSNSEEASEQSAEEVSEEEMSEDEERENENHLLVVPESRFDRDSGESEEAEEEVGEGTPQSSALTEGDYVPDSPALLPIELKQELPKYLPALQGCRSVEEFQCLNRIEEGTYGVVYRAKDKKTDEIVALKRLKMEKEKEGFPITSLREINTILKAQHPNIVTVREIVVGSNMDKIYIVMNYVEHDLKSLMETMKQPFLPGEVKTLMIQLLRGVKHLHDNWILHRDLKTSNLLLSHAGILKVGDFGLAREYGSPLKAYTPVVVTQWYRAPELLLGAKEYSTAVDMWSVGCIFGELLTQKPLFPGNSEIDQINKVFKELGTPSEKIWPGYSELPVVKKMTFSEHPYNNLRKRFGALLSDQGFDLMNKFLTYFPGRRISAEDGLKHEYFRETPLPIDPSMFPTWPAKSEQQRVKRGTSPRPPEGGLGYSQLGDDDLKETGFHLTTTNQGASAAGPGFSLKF

In test [3] the target is Dual specificity protein kinase CLK2 (Homo sapiens, UniProt P49760). As to the kind of experiment: Selectivity interaction (KinomeScan (DiscoverX)) EUB0000655a CLK2.
Chain of Dual specificity protein kinase CLK2 (P49760 whole entry, looked up): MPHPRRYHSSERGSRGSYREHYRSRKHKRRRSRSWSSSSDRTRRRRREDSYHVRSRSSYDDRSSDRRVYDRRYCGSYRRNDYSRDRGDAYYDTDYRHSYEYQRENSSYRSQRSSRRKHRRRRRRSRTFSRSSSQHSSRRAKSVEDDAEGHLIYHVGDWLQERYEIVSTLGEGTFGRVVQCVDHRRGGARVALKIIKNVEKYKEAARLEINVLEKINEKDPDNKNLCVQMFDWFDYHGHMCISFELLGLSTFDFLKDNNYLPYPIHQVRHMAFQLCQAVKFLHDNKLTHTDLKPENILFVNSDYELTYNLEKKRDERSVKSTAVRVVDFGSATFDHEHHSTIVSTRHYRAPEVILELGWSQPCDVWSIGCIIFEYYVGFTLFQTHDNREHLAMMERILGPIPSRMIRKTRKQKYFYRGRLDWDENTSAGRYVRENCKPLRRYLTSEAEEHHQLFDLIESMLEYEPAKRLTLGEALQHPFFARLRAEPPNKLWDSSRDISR
In test [4] the target is T2, Serine/threonine-protein kinase Nek3 (Homo sapiens) (UniProt P51956).
T2 sequence (whole entry): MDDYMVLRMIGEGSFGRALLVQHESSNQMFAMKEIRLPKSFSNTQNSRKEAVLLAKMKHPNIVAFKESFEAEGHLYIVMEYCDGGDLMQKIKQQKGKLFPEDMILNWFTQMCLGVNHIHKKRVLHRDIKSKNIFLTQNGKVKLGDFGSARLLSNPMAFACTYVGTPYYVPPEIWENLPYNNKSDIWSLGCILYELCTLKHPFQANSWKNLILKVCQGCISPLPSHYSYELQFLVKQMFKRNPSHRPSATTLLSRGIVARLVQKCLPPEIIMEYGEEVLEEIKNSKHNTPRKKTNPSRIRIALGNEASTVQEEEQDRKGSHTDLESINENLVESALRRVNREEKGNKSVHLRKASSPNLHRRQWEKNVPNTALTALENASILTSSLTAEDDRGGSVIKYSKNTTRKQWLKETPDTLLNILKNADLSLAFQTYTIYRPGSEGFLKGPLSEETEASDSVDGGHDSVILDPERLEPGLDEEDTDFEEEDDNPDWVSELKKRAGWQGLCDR
Kind of test: Selectivity interaction (KinomeScan (DiscoverX)) EUB0000666a NEK3.

Test [5] has as its target T3, Bone morphogenetic protein receptor type-2 (Homo sapiens) (UniProt Q13873).
T3 sequence (whole entry): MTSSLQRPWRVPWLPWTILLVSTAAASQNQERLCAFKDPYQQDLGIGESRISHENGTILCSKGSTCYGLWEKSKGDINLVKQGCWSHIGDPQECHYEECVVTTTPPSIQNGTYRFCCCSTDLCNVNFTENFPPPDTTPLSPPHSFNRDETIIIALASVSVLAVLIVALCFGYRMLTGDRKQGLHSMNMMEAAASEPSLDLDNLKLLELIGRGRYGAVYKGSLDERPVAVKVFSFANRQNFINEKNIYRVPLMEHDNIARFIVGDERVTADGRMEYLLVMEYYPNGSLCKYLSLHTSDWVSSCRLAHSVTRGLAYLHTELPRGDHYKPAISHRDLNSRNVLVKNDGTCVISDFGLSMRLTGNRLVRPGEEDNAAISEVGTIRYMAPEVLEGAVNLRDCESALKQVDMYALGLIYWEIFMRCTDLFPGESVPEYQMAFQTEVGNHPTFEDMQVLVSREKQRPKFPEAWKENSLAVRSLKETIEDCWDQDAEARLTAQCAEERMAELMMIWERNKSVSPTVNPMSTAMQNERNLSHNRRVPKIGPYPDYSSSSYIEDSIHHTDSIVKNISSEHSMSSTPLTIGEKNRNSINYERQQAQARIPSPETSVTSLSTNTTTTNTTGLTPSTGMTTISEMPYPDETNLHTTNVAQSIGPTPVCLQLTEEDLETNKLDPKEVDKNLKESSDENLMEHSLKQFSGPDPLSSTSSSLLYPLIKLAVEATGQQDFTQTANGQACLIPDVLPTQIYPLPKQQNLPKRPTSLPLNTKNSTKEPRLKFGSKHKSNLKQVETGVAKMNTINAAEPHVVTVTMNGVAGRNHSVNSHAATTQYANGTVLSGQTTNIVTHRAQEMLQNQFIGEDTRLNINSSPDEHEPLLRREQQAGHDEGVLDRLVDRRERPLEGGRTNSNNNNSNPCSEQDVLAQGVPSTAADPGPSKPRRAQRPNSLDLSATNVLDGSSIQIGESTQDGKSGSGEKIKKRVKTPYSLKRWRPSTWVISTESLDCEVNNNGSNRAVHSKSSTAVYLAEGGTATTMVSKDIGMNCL
Kind of test: Selectivity interaction (KinomeScan (DiscoverX)) EUB0000618a BMPR2.

Chain of Death-associated protein kinase 1 (P53355 whole entry, looked up): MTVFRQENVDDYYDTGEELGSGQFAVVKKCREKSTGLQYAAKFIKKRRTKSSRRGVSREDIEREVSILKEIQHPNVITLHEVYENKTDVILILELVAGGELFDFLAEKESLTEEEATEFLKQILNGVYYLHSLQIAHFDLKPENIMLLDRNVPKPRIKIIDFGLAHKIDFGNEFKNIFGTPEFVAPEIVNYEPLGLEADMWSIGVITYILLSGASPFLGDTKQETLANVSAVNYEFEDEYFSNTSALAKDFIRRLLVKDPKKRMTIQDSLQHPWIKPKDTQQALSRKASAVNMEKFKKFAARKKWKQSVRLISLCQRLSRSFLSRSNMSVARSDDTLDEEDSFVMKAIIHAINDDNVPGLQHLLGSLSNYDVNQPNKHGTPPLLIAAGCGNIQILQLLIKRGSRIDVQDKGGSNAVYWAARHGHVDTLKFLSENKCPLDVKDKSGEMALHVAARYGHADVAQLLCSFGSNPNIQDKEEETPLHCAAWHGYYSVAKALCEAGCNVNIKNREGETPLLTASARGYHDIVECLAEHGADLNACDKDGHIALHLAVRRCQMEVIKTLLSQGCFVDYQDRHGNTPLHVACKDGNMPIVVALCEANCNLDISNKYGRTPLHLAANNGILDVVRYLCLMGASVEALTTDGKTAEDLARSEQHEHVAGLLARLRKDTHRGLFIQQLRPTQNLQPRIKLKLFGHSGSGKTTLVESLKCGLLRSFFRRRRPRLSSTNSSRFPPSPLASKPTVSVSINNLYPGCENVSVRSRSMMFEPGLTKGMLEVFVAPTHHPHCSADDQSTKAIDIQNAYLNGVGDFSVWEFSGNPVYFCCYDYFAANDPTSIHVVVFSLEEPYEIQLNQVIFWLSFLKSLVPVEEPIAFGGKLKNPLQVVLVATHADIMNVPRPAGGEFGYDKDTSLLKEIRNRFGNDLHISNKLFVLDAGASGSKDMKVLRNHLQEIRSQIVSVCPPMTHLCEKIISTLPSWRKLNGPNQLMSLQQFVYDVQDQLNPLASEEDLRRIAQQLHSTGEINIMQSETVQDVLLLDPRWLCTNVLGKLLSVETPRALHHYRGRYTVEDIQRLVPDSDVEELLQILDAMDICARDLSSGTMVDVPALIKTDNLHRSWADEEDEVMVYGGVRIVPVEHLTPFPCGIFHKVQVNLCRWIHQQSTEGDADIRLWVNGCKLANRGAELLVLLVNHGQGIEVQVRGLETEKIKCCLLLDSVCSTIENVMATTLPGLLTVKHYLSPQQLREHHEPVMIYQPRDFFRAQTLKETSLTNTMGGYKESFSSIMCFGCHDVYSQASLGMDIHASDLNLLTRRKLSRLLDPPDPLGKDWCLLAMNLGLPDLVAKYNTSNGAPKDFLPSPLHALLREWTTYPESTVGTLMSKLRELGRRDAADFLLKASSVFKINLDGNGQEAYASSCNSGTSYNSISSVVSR

As for `Cc1cc([C@@H](C)Nc2ccccc2C(=O)O)c2nc(N3CCOCC3)cc(=O)n2c1` [AZD-6482], the results for the % of control in test [1] and in test [2] were 95% and 91%, respectively. `CN(C)CCOc1ccc(-c2nc(-c3ccncc3)c(-c3ccc4c(c3)CC/C4=N\O)[nH]2)cc1`: the % of control in test [3] was 52%.

Compound `O=C(NOC[C@H](O)CO)c1ccc(F)c(F)c1Nc1ccc(I)cc1F` returned a % of control in test [4] of 100%. For the compound `O[C@H]1CC[C@H](Nc2ncc3nc(Nc4c(F)cc(F)cc4F)n([C@H]4CCOC4)c3n2)CC1`, in test [5], the % of control amounted to 78%.

The values are drawn from ChEMBL document CHEMBL5465560, “Selectivity Literature for EUbOPEN Chemogenomic Library” (2024).
